According to patent US20240261243A1, “NITRIC OXIDE DONORS, COMPOSITIONS, AND METHODS OF USE” (priority 2020, published 2024):
“And” between values parts separate entries of the source, which are not always exact repeats. Identical values can stand only once.

Experiments:
[1] = NO storage and release measurement (chemiluminescence nitric oxide analyzer); assay type: physicochemical
Method: N-diazeniumdiolates NO scaffolds are pH-triggered NO-release donors. Reacting with proton in the physiological condition (e.g., 37° C., pH 7.4), 1 mole of N-diazeniumdiolate regenerates 1 mole of the parent secondary amine compounds and two moles of NO radicals. The real-time detection of NO was performed by using a chemiluminescence-based nitric oxide analyzer (NOA). The total NO storage and dissociation kinetics of water-soluble NO Donors were measured in physiological condition (pH 7.40, 37° C.). The resulting NO-release parameters (e.g., total NO storage, half-life of NO release, maximum flux, and conversion efficiency) were evaluated for suitability as a pharmaceutical product.
Transfer the solution into the high-pressure vessel and purge the headspace with nitrogen. Mix the solution and set nitric oxide pressure to 25 bar (temp 20° C.). Allow the reaction to run for minimum of 3 days. Stop the reaction by venting the NO. Precipitate the reaction product in acetone (10:1 acetone:reaction mixture). Filter the precipitate and vacuum dry.
We sought to determine whether an NO donor and gallium nitrate have antimicrobial synergy against a lab strain of P. aeruginosa (PAK). The Checkerboard assay (described herein) was used with a hepta-substituted cyclodextrin-based NO donor (hereinafter referred to as BIOC76) having approximately ˜4.7 μmol NO/mg dry powder.

[2] = NO release half-life of diazeniumdiolate NO donors in aqueous media at pH 7.4; assay type: physicochemical
Excerpt: The rate of nitric oxide release from diazeniumdiolates can be controlled using a variety of structural features.

P. aeruginosa (PAK) = assay: Combination MIC/MBC assay, BIOC76 with fixed gallium citrate; assay type: cell-based, Pseudomonas aeruginosa; details: PAK; alone
Method: Combination MIC/MBC assays are useful when you want to look at only a few concentrations of one compound (Gallium citrate) combined with many concentrations of the second compound (BIOC76).
This method also allows us to see the change in both the MIC and MBC of a drug when in combination with another drug. Checkerboard assays only allow us to see changes in the MIC's.
Test articles are added to a 96-well plate so that when a 2× bacterial culture (prepared to 10^6 CFU/ml) is added, the final concentration in all wells was 1×.
All test articles are prepared at 4×→diluted 1:1 when other TA is added (2×) and diluted 1:1 again to 1× when bacteria are added.
TA #1 (Gallium citrate) is prepared and added to entire rows of a plate at a single concentration.
TA #2 (BIOC76) in then prepared and serially diluted in TA #1, so there are 2-fold dilutions of TA #2 combined with a single concentration of TA #1.
Plates were incubated at 37° C. for 18-24 h.
The ΔMIC/IBC is used to show the change in the MIC/IBC of BIOC76 when in combination with Gallium citrate (compared to when BIOC76 is used alone).
ΔMIC/MBC is the fold-decrease in BIOC76 concentration as a result of the combination.
We concluded BIOC76 and gallium citrate maintain synergistic activity so long as the gallium concentration is at least about 0.005 to about 0.02 mg/ml. In this experimental, we set up MIC/MBC assay and serially diluted BIOC76 in rows with fixed concentrations of gallium citrate. […] The results are shown in FIG. 6, and in the following tables: […]

P. aeruginosa strains = assay: MIC/MBC of BIOC76 and gallium citrate alone against 21 strains; assay type: cell-based, Pseudomonas aeruginosa; details: for MBC Rep 1 / MIC Rep 1: alone
Excerpt: Determined the MIC of each test article individually against the strains being tested using the CLSI MIC/MBC method.
In this study, we established the MIC/MiBC's of BIOC76 and gallium citrate alone against each of 21 P. aeruginosa strains. […] The activity of both compounds is also strain-dependent. The results are as follows (the species for each strain is Pseudomonas aeruginosa: […]

P. aeruginosa biofilms = assay: Biofilm eradication (MBEC) on peg lid
[3] = N-methyl amine; cited from earlier work
[4] = molecular target: angiotensin-converting enzyme 2 (ACE2) (Homo sapiens, UniProt Q9BYF1); details: ACE2 inhibitor from foodstuffs; cited from earlier work
[5] = PAK (N0049), 3-log reduction in biofilm

Sequence of angiotensin-converting enzyme 2 (ACE2) (Q9BYF1 18-805): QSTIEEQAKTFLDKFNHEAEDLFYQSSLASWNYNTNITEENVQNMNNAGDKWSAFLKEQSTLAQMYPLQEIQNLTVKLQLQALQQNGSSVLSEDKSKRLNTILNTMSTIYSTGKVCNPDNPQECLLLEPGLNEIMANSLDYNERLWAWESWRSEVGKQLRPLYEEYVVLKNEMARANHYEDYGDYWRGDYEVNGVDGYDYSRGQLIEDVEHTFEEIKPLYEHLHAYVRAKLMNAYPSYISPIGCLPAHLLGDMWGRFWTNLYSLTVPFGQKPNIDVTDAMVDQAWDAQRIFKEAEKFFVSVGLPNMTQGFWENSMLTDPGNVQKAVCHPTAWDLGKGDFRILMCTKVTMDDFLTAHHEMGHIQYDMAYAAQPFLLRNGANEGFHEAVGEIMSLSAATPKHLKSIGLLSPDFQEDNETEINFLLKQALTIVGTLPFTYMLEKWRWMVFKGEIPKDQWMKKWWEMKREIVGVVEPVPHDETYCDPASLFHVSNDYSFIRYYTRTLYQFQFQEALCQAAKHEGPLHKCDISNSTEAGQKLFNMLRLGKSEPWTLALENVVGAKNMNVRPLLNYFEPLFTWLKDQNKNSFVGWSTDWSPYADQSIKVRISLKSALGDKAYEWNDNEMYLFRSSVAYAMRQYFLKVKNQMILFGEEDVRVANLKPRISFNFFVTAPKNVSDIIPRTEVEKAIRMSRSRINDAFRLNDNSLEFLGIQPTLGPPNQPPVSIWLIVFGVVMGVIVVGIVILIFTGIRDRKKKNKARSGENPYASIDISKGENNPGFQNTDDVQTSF
Method for P. aeruginosa strain PAK: All test articles are prepared at 4×→diluted 1:1 when other TA is added (2×), and diluted 1:1 again to 1× when bacteria are added
Experimental Design: The MIC of BIOC76 and Gallium nitrate individually, then set up a checkerboard assay testing 49 combinations of BIOC76 and Gallium nitrate concentrations against 10^6 CFU/ml P. aeruginosa strain PAK. Plates were incubated at 37° C. for 18-24 h, and growth was assessed visually.

## C[C@@H]1CCC[C@H](C)N1N(O)N=O [Entry 22, 2,6 cis-dimethylpiperdine-NONOate]
[1]
  Max Flux: 4933 ppb/mg
  NO Total: 3.7 µmol/mg
[1]; physiological condition (pH 7.40, 37° C.), buffer not named, pH 7.4, NO release
  half-life: 1.3 h
[2]; vs entry 19
  rate of NO release, fold slower than unsubstituted piperidine: over 60 fold

## CC(C)C[C@H](NC(=O)[C@@H]1CCCN1N(O)N=O)C(=O)NCC(N)=O [Entry 49]
[2]; vs entry 29
  diazeniumdiolate half-life, fold longer than unsubstituted pyrrolidine analog: 140 fold
[2]; vs entry 30
  diazeniumdiolate half-life, fold longer than proline carboxylate analog: over 200 fold

## O=NN(O)N1C2CCC1c1ccccc12 [Entry 50]
[2]; vs entry 23
  fold more stable than monocyclic dimethyl-substituted pyrrolidine analog: 8 fold

## O=C([O-])CC(O)(CC(=O)[O-])C(=O)[O-].[Ga+3] [Gallium citrate, gallium citrate, reference compound]
P. aeruginosa (PAK)
  MIC GaCi: 65 mg/L
P. aeruginosa strains; 21 P. aeruginosa strains
  killing of P. aeruginosa strains (conclusion): does not kill any strain of P. aeruginosa
  mode of activity alone (conclusion): largely bacteriostatic
P. aeruginosa strains; strain N0047 (AR-BANK #103)
  MBC Rep 1: >2000 mg/L
  MIC Rep 1: 250 mg/L
P. aeruginosa strains; strain N0048 (ATCC 19143)
  MBC Rep 1: >2000 mg/L
  MIC Rep 1: 2000 mg/L
P. aeruginosa strains; strain N0049 (PAK)
  MBC Rep 1: >2000 mg/L
  MIC Rep 1: 65 mg/L
P. aeruginosa strains; strain N0050 (AR-BANK #0095)
  MBC Rep 1: >2000 mg/L
  MIC Rep 1: 250 mg/L
P. aeruginosa strains; strain N0051 (AU32077)
  MBC Rep 1: >2000 mg/L
  MIC Rep 1: 250 mg/L
P. aeruginosa strains; strain N0052 (AU25834)
  MIC Rep 1: >2000 mg/L
P. aeruginosa strains; strain N0053 (AU30524)
  MBC Rep 1: >2000 mg/L
  MIC Rep 1: 250 mg/L
P. aeruginosa strains; strain N0054 (AU26773)
  MBC Rep 1: >2000 mg/L
  MIC Rep 1: 125 mg/L
P. aeruginosa strains; strain N0055 (AU22725)
  MBC Rep 1: >2000 mg/L
  MIC Rep 1: 62.5 mg/L
P. aeruginosa strains; strain N0056 (AU22505)
  MBC Rep 1: >2000 mg/L
  MIC Rep 1: 1000 mg/L
P. aeruginosa strains; strain N0057 (AU35400)
  MBC Rep 1: >2000 mg/L
  MIC Rep 1: 65 mg/L
P. aeruginosa strains; strain N0058 (AU32543)
  MBC Rep 1: >2000 mg/L
  MIC Rep 1: 500 mg/L
P. aeruginosa strains; strain N0059 (AR-BANK #0054)
  MBC Rep 1: >2000 mg/L
  MIC Rep 1: 32.5 mg/L
P. aeruginosa strains; strain N0069 (AR-BANK #0090)
  MBC Rep 1: >2000 mg/L
  MIC Rep 1: 125 mg/L
P. aeruginosa strains; strain N0070 (AR-BANK #0092)
  MBC Rep 1: >2000 mg/L
  MIC Rep 1: 62.5 mg/L
P. aeruginosa strains; strain N0071 (AR-BANK #0100)
  MBC Rep 1: >2000 mg/L
  MIC Rep 1: 125 mg/L
P. aeruginosa strains; strain N0072 (AR-BANK #0105)
  MBC Rep 1: >2000 mg/L
  MIC Rep 1: 500 mg/L
P. aeruginosa strains; strain N0079 (AR-BANK #0108)
  MBC Rep 1: >2000 mg/L
  MIC Rep 1: 125 mg/L
P. aeruginosa strains; strain N0080 (AR-BANK #0110)
  MBC Rep 1: >2000 mg/L
  MIC Rep 1: 125 mg/L
P. aeruginosa strains; strain N0081 (AR-BANK #0111)
  MBC Rep 1: >2000 mg/L
  MIC Rep 1: 250 mg/L
P. aeruginosa strains; strain N0099 (ATCC 29260)
  MBC Rep 1: >2000 mg/L
  MIC Rep 1: 125 mg/L

## O=[N+]([O-])[O-].O=[N+]([O-])[O-].O=[N+]([O-])[O-].[Ga+3] [Gallium nitrate, gallium nitrate, reference compound]
P. aeruginosa biofilms; [5]
  MBEC of Gallium nitrate: >16 mg/mL
P. aeruginosa biofilms; biofilms grown under aerobic conditions
  effectiveness against P. aeruginosa biofilms: is not
P. aeruginosa strain PAK
  MIC Ga(NO3)3 alone: 65 mg/L
P. aeruginosa strain PAK; in combination with BIOC76
  MIC Ga(NO3)3 combo: 15 mg/L

## C[C@@H]1CCC[C@H](C)N1C [N-methyl-cis-2,6-dimethylpiperidine]
[3]
  pKa: 9.35

## N[C@@H](CCN[C@@H](CCN1CC[C@H]1C(=O)O)C(=O)O)C(=O)O [Nicotianamine]
[4]
  IC50: 0.084 µM

## NC[C@H]1O[C@H](O[C@H]2[C@H](O)[C@@H](O[C@H]3O[C@H](CO)[C@@H](O)[C@H](N)[C@H]3O)[C@H](N)C[C@@H]2N)[C@H](N)C[C@@H]1O [Tobra, Tobramycin]
P. aeruginosa biofilms; [5]
  MBEC of Tobra: 8 µg/mL and 4 µg/mL
